Assay results reported in patent US7253258B2, “Proline rich acidic protein and uses thereof” (National University of Singapore, priority 2003, dated 2007).
“And” between values parts separate entries of the source, which are not always exact repeats. Equal entries are not always repeated.

Legend:
[1] = system: PRAP expression in HT29 cells; test: Real time RT-PCR of PRAP expression in HT29 cells treated with TSA, DAC or both; type: cell-based, human; settings: HT29, 72 h, TSA (300 ng), DAC (1 μm); for PRAPcp-GAPDHcp: crossing point of PRAP normalized by GAPDH: untreated 12.63
Procedure: (§1) Sigma), trichostatin A (TSA, 300 nM; Sigma) or a combination of both drugs for 72 hours. For the combined treatment, cells were treated with 1 μM DAC for 24 h followed by the addition of 300 nM TSA for another 48 h. Total RNA was extracted using the […] (Qiagen). The experiment was performed in duplicates and the average result calculated. Primers for real-time PCR were designed using the LightCycler Probe Design Software, version 1.0 (Roche, France). […] Real-time PCR was performed on the LightCycler (Roche, France) using the LightCycler-RNA amplification Kit SYBR Green I (Roche, France). The specificity of the amplification was assessed by electrophoretic separation of the amplified products and melting curve analysis. […] The efficiencies of both amplifications were calculated according to the slope of the standard curves. Relative PRAP expression was quantified after normalisation with GAPDH.

[2] = system: PRAP expression in HCT116 cells; test: Real time RT-PCR of PRAP expression in HCT116 cells treated with TSA, DAC or both; type: cell-based, human; settings: HCT116, 72 h, TSA (300 ng), DAC (1 μm); for PRAPcp-GAPDHcp: crossing point of PRAP normalized by GAPDH: untreated 13.97
Procedure: as §1

[3] = system: PRAP expression in HT29 cells; test: Western blot of PRAP expression in HT29 cells at different butyrate concentrations; type: cell-based, human
Description: Cells or tissues were extracted with RIPA buffer (1×PBS, 1% Nonidet P-40, 0.5% sodium deoxychelate and 0.1% SDS. Protease inhibitors: PMSF, aprotinin, pepstatin A and leupeptin were freshly added to the RIPA buffer at the point of usage). […] The secondary antibody was either HRP-conjugated anti-rabbit IgG (BioRad, Hercules, Calif., 1:10,000) or HRP-conjugated anti-mouse antibody (Santa Cruz Biotechnology, Santa Cruz, Calif., 1:20,000). The proteins were visualized using the SuperSignal® West Dura Extended (Pierce) chemiluminescent substrate and exposed to an autoradiograph film.

[4] = system: PRAP gene expression in HT29 cells; test: Northern blot of PRAP gene expression in butyrate-treated HT29 cells; type: cell-based, human; settings: HT29, 5 mM butyrate
Procedure: The HT29, HCT116, HepG2 and HeLa cell lines were purchased from American Type Culture Collection (Manassas, Va.). HT29 and HCT116 cells were cultured in McCoy's 5A (Sigma Chemical Co., St. Louis, Mo.), HepG2 in DMEM and HeLa in RPMI, all supplemented with 10% fetal bovine serum (Life Technologies, Inc., Gaithersburg, Md.), at 37° C. in a 5% CO2 humidified atmosphere. Cells were treated with 5 mM sodium butyrate (final concentration in media; Life Technologies, Inc) or vehicle. Total RNA was prepared from the cells at the respective time points from three separate flasks.
In a separate experiment, total RNA from tissues and cell lines was prepared using the guanidinium thiocyanate method as previously described (MacDonald et al., 1987). 15 μg of RNA was separated by formaldehyde/agarose gel electrophoresis, transferred to nylon membrane (Qiabrane, Qiagen, Hilden, Germany), cross-linked (Stratalinker, Stratagene, La Jolla, Calif.), and hybridised to cDNA probes, as previously described (Wang et al., 1999). […] Relative mRNA levels were quantified by Typhoon phospho-imager (Amersham Bioscience, UK) and normalised against 18S levels. Normal/Tumour (N/T) ratios were obtained by dividing the normalised relative densitometric units of the normal mucosa by tumour.

HT29 cells = settings: HT29 stable clones, MTT, p<0.01
Procedure: (§2) Cells were subjected to selection in 1200 μg/ml G418 and the number of colonies scored manually at the end of 3 weeks.
The colorimetric MTT (3-(4,5-dimethylthiazol-2yl)-2,5-diphenyl-tetrazolium bromide; Sigma) assay was used as a surrogate measure of cell number at various time points. The experiment was performed in replicates of six and repeated twice.

HeLa cells [5] = system: HeLa cells
Procedure: as §2

HeLa cells [6] = test: Cell numbers after transfection (overexpression) in HeLa cells, haemocytometer count after Trypan Blue; type: cell-based, human; settings: 72 h after transfection
Procedure: The cDNA fragment was cloned into pcDNA 3.1. All plasmids were sequenced to confirm identity and exclude mutations. The plasmids were transfected into HepG2 and HeLa cells using Lipofectamine (Invitrogen), according to manufacturer's recommendations. Each experiment was performed in quadruplicates and repeated three times. After 72 h, the cells were harvested and counted by a haemocytometer after Trypan Blue staining. Whole cell extracts were prepared for Western blot analysis as described.

Row | Molecule | Fold of increase of PRAP expression relative to untreated HT29 [1] | PRAPcp-GAPDHcp: crossing point of PRAP normalized by GAPDH [1] | PRAPcp-GAPDHcp: crossing point of PRAP normalized by GAPDH [2] | Reduction in cell numbers compared to vector-transfected controls (HeLa cells [6]) | also measured
1 | Nc1ncn([C@H]2C[C@H](O)[C@@H](CO)O2)c(=O)n1 [DAC, 5-aza-2′ deoxycytidine] | 8.5 fold | 9.37 | 13.8 |  | 
2 | CC(/C=C/C(=O)NO)=C\[C@@H](C)C(=O)c1ccc(N(C)C)cc1 [TSA, trichostatin A] | 8.4 fold | 9.38 | 11.6 |  | Fold of increase of PRAP expression relative to untreated HCT116 [2]: 5.2 fold and 5.17 fold
3 | CCCC(=O)[O-].[Na+] [butyrate, sodium butyrate] |  |  |  |  | Butyrate concentration giving maximal PRAP expression [3]: 2 to 5 mM; PRAP gene expression versus control non-treated cells ([4]; 6 days after treatment): 29 fold; Increase of PRAP gene expression ([4]; within 24 h): 20 fold
4 | Proline-rich acidic protein [PRAP] |  |  |  | 55% | Rate of cell growth of stably transfected clones versus vector controls (HT29 cells): significantly lower rate of cell growth; Size of colonies compared to controls (HeLa cells [5]; 3 weeks selection in 1200 μg/ml G418): reduction in the size; Reduction in the number of colonies (HeLa cells [5]; 3 weeks selection in 1200 μg/ml G418, versus vector): 50%
5 | PRAP/-SP: truncated PRAP without signal peptide, amino acid 21 to 151 (protein) VPAPKVPIKMQVKHWPSEQDPEKAWGARVVEPPEKDDQLVVLFPVQKPKLLTTEEKPRGQGRGPILPGTKAWMETEDTLGRVLSPEPDHDSLYHPPPEEDQGEERPRLWVMPNHQVLLGPEEDQDHIYHPQ |  |  |  | did not result in a reduction in cell numbers | 
